The target of assay [1] is Galectin-3 (Homo sapiens, UniProt P17931). Kind of assay: Evaluation of Kd Values. The procedure: (§1) The affinity of Example 1-14 for galectins were determined by a fluorescence anisotropy assay where the compound was used as an inhibitor of the interaction between galectin and a fluorescein tagged saccharide probe as described S rme, P., Kahl-Knutsson, B., Huflejt, M., Nilsson, U. J., and Leffler H. (2004) Fluorescence polarization as an analytical tool to evaluate galectin-ligand interactions. Anal. Biochem. 334: 36-47, (Sarme et al., 2004) and Monovalent interactions of Galectin-1 By Salomonsson, Emma; Larumbe, Amaia; Tejler, Johan; Tullberg, Erik; Rydberg, Hanna; Sundin, Anders; Khabut, Areej; Frejd, Torbjorn; Lobsanov, Yuri D.; Rini, James M.; et al, From Biochemistry (2010), 49(44), 9518-9532, (Salomonsson et al., 2010).

For assay [2], the target named is Galectin-1 (Homo sapiens, UniProt P09382). Kind of assay: Evaluation of Kd Values. The protocol:
as §1

Galectin-3, sequence (P17931 whole entry): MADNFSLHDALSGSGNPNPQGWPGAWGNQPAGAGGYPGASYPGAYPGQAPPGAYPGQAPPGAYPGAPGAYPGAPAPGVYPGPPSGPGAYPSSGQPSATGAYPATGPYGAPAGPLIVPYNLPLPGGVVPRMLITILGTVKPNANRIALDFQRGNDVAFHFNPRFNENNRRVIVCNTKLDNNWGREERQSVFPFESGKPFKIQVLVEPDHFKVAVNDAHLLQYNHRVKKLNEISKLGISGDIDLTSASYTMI
Galectin-1, sequence (P09382 whole entry): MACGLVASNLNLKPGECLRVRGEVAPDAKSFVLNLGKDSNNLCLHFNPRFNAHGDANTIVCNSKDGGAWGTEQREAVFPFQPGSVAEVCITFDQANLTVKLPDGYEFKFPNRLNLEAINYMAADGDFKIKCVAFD

One may read the Kd as the constant that tells how readily two partners part at equilibrium. Higher therefore signals a looser complex. In the case of `OCC1O[C@@H](S[C@@H]2O[C@H](CO)C(O)C(n3cc(-c4cccc(F)c4)cn3)[C@H]2O)C(O)[C@@H](n2cc(-c3cccc(F)c3)cn2)[C@H]1O` (some centres undefined) [US20240059728, Example 4], the equilibrium dissociation constant (Kd) is under 10 nM in assay [1] and 780 nM in assay [2].

Take `OCC1O[C@@H](S[C@@H]2O[C@H](CO)C(O)C(n3cc(-c4cc(F)c(F)c(F)c4)cn3)[C@H]2O)C(O)[C@@H](n2cc(-c3cc(F)c(F)c(F)c3)cn2)[C@H]1O` (some centres undefined) [US20240059728, Example 5]: the Kd in assay [1] stood at 6 nM; in assay [2], 890 nM.
